In ChEMBL document CHEMBL4017483, “Potent and selective oxytocin receptor agonists without disulfide bridges” (Bioorg Med Chem Lett, 2017):
Bridge positions count the residues as written; N and C are the ends. Square brackets hold non-standard residues; d marks the D form. Peptide text beside a SMILES is read from it. Mpa = O=C(O)CCS

How the values were obtained:
[1] = organism: Homo sapiens; experiment: Selectivity ratio of EC50 for human V1b receptor to EC50 for human OTR
[2] = molecular target: T1, Vasopressin V1b receptor (Homo sapiens, UniProt P47901); experiment: Agonist activity at human V1b receptor expressed in CHO cells assessed as calcium mobilization measured after 30 mins by Fluo-4-AM dye based FLIPR assay; format: cell-based
T1 sequence (P47901 whole entry): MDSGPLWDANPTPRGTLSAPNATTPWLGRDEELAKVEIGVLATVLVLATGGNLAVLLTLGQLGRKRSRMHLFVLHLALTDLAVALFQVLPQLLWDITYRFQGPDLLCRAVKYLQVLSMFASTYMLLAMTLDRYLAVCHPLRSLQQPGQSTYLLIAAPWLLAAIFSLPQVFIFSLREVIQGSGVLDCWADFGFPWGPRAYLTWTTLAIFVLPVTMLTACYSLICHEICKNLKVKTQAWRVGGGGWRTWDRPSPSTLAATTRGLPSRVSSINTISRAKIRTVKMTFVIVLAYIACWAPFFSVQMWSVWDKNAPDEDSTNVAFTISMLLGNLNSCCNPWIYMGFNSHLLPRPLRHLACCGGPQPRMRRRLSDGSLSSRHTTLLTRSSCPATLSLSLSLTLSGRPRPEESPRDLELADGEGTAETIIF

[3] = organism: Homo sapiens; experiment: Selectivity ratio of EC50 for human V1a receptor to EC50 for human OTR
[4] = molecular target: Vasopressin V1a receptor (Homo sapiens, UniProt P37288); experiment: Agonist activity at human V1a receptor expressed in CHO cells assessed as calcium mobilization measured after 30 mins by Fluo-4-AM dye based FLIPR assay; format: cell-based
[5] = molecular target: T2, Oxytocin receptor (Homo sapiens, UniProt P30559); experiment: Agonist activity at human OTR expressed in CHO cells assessed as calcium mobilization measured after 30 mins by Fluo-4-AM dye based FLIPR assay; format: functional, cell-based
T2 sequence (P30559 whole entry): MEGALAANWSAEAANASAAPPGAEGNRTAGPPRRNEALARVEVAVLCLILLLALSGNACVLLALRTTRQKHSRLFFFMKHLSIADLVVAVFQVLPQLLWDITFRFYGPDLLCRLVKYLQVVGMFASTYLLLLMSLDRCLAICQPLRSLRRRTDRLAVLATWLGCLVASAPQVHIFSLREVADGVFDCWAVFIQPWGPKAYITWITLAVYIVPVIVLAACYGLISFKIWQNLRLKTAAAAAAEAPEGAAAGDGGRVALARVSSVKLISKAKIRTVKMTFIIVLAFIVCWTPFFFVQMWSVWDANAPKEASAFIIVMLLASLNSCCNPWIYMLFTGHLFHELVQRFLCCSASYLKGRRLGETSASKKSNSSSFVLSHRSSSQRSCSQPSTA

Vasopressin V1a receptor, sequence (P37288 whole entry): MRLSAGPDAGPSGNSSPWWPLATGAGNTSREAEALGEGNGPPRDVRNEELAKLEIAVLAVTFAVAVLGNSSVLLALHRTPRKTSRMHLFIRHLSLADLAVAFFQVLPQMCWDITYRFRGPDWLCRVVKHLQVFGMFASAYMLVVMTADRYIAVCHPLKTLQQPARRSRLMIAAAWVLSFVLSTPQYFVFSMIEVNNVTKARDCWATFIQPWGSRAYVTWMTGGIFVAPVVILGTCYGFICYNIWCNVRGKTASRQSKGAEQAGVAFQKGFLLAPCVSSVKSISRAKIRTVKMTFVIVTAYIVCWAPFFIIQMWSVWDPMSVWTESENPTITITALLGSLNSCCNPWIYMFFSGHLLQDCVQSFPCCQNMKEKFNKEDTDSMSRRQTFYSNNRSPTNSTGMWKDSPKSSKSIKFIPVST

`CC[C@H](C)[C@@H]1NC(=O)[C@H](Cc2ccc(O)cc2)NC(=O)CCSSC[C@@H](C(=O)N2CCC[C@H]2C(=O)N[C@@H](C)C(=O)NCC(N)=O)NC(=O)[C@H](CC(N)=O)NC(=O)[C@H](CCC(N)=O)NC1=O` ([Mpa]YIQNCPAG-NH2; disulfide 1-6) was tested. Which Ratio EC50 [1] did it give?
Its Ratio EC50 is 8.1.

And the EC50 [2]?
The EC50 was 0.17 nM.

What about the Ratio EC50 [3] of the same compound?
Its Ratio EC50 is 200.

What about the EC50 [4] of the same compound?
Its EC50 is 4.2 nM.

And the EC50 [5]?
The EC50 was 0.021 nM.

How did the Ratio EC50 [1] turn out when `CC[C@H](C)[C@@H]1NC(=O)[C@H](Cc2ccc(O)cc2)NC(=O)CCSSC[C@@H](C(=O)N2CCC[C@H]2C(=O)N[C@@H](CCC(=O)O)C(=O)NCC(N)=O)NC(=O)[C@H](CC(N)=O)NC(=O)[C@H](CCC(N)=O)NC1=O` ([Mpa]YIQNCPEG-NH2; disulfide 1-6) was run?
Its Ratio EC50 is greater than 100.

What about the EC50 [2] of the same compound?
Its EC50 is greater than 100 nM.

And the Ratio EC50 [3]?
Its Ratio EC50 is greater than 100.

And the EC50 [4]?
The EC50 was greater than 100 nM.

And the EC50 [5]?
The EC50 was 0.25 nM.

`CC[C@H](C)[C@@H]1NC(=O)[C@H](Cc2ccc(O)cc2)NC(=O)CCSSC[C@@H](C(=O)N2CCC[C@H]2C(=O)N[C@@H](Cc2ccccc2)C(=O)NCC(N)=O)NC(=O)[C@H](CC(N)=O)NC(=O)[C@H](CCC(N)=O)NC1=O` ([Mpa]YIQNCPFG-NH2; disulfide 1-6) was tested. Which Ratio EC50 [1] did it give?
Its Ratio EC50 is 44.

What about the EC50 [2] of the same compound?
The EC50 was 2.4 nM.

And the Ratio EC50 [3]?
Its Ratio EC50 is greater than 1000.

What about the EC50 [4] of the same compound?
Its EC50 is greater than 100 nM.

What about the EC50 [5] of the same compound?
Its EC50 is 0.054 nM.

`CC[C@H](C)[C@@H]1NC(=O)[C@H](Cc2ccc(O)cc2)NC(=O)CCSSC[C@@H](C(=O)N2CCC[C@H]2C(=O)N[C@@H](CC(C)C)C(=O)N[C@@H](C)C(N)=O)NC(=O)[C@H](CC(N)=O)NC(=O)[C@H](CCC(N)=O)NC1=O` ([Mpa]YIQNCPLA-NH2; disulfide 1-6) was tested. Which Ratio EC50 [1] did it give?
The Ratio EC50 was greater than 10.

What about the EC50 [2] of the same compound?
The EC50 was greater than 100 nM.

And the Ratio EC50 [3]?
Its Ratio EC50 is greater than 10.

And the EC50 [4]?
Its EC50 is greater than 100 nM.

What about the EC50 [5] of the same compound?
The EC50 was 1.4 nM.

Which results are given for `CC[C@H](C)[C@@H]1NC(=O)[C@H](Cc2ccc(O)cc2)NC(=O)CCSSC[C@@H](C(=O)N2CCC[C@H]2C(=O)N[C@@H](CC(C)C)C(=O)N[C@@H](CCC(=O)O)C(N)=O)NC(=O)[C@H](CC(N)=O)NC(=O)[C@H](CCC(N)=O)NC1=O` ([Mpa]YIQNCPLE-NH2; disulfide 1-6)?
Ratio EC50 [1]: > 10; EC50 [2]: > 100 nM; Ratio EC50 [3]: > 10; EC50 [4]: > 100 nM; EC50 [5]: 9.5 nM

For `CC[C@H](C)[C@@H]1NC(=O)[C@H](Cc2ccc(O)cc2)NC(=O)CCSSC[C@@H](C(=O)N2CCC[C@H]2C(=O)N[C@@H](CC(C)C)C(=O)N[C@@H](Cc2ccccc2)C(N)=O)NC(=O)[C@H](CC(N)=O)NC(=O)[C@H](CCC(N)=O)NC1=O` ([Mpa]YIQNCPLF-NH2; disulfide 1-6), which Ratio EC50 [1] is on record?
The Ratio EC50 was greater than 10.

What about the EC50 [2] of the same compound?
Its EC50 is greater than 100 nM.

And the Ratio EC50 [3]?
Its Ratio EC50 is greater than 10.

And the EC50 [4]?
The EC50 was greater than 100 nM.

What about the EC50 [5] of the same compound?
The EC50 was 1.6 nM.

`CC[C@H](C)[C@@H]1NC(=O)[C@H](Cc2ccc(O)cc2)NC(=O)CCSSC[C@@H](C(=O)N2CCC[C@H]2C(=O)N[C@@H](CC(C)C)C(=O)N[C@@H](CC(C)C)C(N)=O)NC(=O)[C@H](CC(N)=O)NC(=O)[C@H](CCC(N)=O)NC1=O` ([Mpa]YIQNCPLL-NH2; disulfide 1-6) was tested. Which Ratio EC50 [1] did it give?
The Ratio EC50 was greater than 10.

And the EC50 [2]?
Its EC50 is greater than 100 nM.

What about the Ratio EC50 [3] of the same compound?
The Ratio EC50 was greater than 10.

And the EC50 [4]?
Its EC50 is greater than 100 nM.

What about the EC50 [5] of the same compound?
Its EC50 is 1.6 nM.

What does the source list for `CC[C@H](C)[C@@H]1NC(=O)[C@H](Cc2ccc(O)cc2)NC(=O)CCSSC[C@@H](C(=O)N2CCC[C@H]2C(=O)N[C@@H](CC(C)C)C(=O)N[C@@H](CCCNC(=N)N)C(N)=O)NC(=O)[C@H](CC(N)=O)NC(=O)[C@H](CCC(N)=O)NC1=O` ([Mpa]YIQNCPLR-NH2; disulfide 1-6)?
Ratio EC50 [1]: > 100; EC50 [2]: > 100 nM; Ratio EC50 [3]: > 100; EC50 [4]: > 100 nM; EC50 [5]: 0.53 nM

With `CC[C@H](C)[C@@H]1NC(=O)[C@H](Cc2ccc(O)cc2)NC(=O)CCSSC[C@@H](C(=O)N2CCC[C@H]2C(=O)N[C@@H](CCCNC(=N)N)C(=O)NCC(N)=O)NC(=O)[C@H](CC(N)=O)NC(=O)[C@H](CCC(N)=O)NC1=O` ([Mpa]YIQNCPRG-NH2; disulfide 1-6) as the compound, how does the Ratio EC50 [1] read?
The Ratio EC50 was 1.1.

What about the EC50 [2] of the same compound?
The EC50 was 0.034 nM.

And the Ratio EC50 [3]?
Its Ratio EC50 is 4.

And the EC50 [4]?
Its EC50 is 0.12 nM.

And the EC50 [5]?
Its EC50 is 0.03 nM.
